≈ marks a conversion by molar mass, not a printed value.
Key:
guinea pig erythrocytes = experiment: Hemolytic assay, guinea pig erythrocytes; format: cell-based; settings: 1% v/v, one hour at 37° C.
Procedure: Hemolytic assay. Hemolytic activity of various peptide concentrations was determined by incubation with human, guinea pig or sheep erythrocyte suspensions (final erythrocyte concentration, 1% v/v) for one hour at 37° C. After cooling and centrifugation, the optical density of the supernatants were measured at 540 nm. Peptide concentrations causing 50% hemolysis (EC50) were derived from the dose-response curves.

[1] = test system: Escherichia coli ATCC 25922; experiment: Antimicrobial assay (MIC), E. coli; format: cell-based; settings: overnight at 37° C.
Procedure: Antimicrobial assay. Two bacterial strains (Escherichia coli ATCC 25922 and Enterococcus faecalis ATCC 29212) were inoculated on heart infusion agar with 5% sheep blood and incubated aerobically overnight at 37° C. From the pure cultures, suspensions were made in saline to a density of 0.5 McFarland. These suspensions were diluted ten-fold in Mueller Hinton II broth, resulting in a final inoculum of approximately 10^7 cfu/ml.
Standard 96-well microtiter trays were filled with 100 ill of two-fold dilutions of peptide in physiologic salt solution in each well, resulting in the following concentration range: 4000, 2000, 1000, 500, 250, 125, 62.25, 31.63, 15.82, 7.96 and 0 μg/ml. The trays in column 12 were filled with 200 μl MH II broth (negative control).
Columns 1-11 of the microtiter trays were filled with 100 μl of the final inoculum of the bacterial suspensions, thus diluting the concentrations of the peptide two fold, resulting in the following peptide concentration range in the wells: 2000, 1000, 500, 250, 125, 62.25, 31.63, 15.82, 7.96, 3.98 and 0 μg/ml. In rows B, C and D, 100 μl of the final inoculum of E. coli and, in rows E, F and G, 100 μl of the final inoculum of E. faecalis was pipetted. The final bacterial concentration was approximately 5×10^5 cfu/well. All trays were sealed and incubated overnight at 37° C. After incubation, the microtiter trays were inspected visually for bacterial growth and the absorbance of the cultures at 630 nm (A630) was determined with an ELISA-reader. […] The experiment was performed independently in triplicate. The test was repeated again in triplicate after two days with the final peptide concentration range in the wells: 5000, 2500, 1250, 625, 312.5, 156.25, 78.12, 39.06, 19.58, 9.79, 4.88, 2.44 and 1.22 μg/ml.

Row | SMILES | Hemolysis (peptide concentration causing 50% hemolysis) (guinea pig erythrocytes) [mg/mL] | MIC (minimal inhibitory concentration needed to inhibit bacterial growth) [1] [µg/mL]
1 | CC[C@H](C)[C@H](NC(=O)[C@H](CCCNC(=N)N)NC(=O)[C@H](CC(C)C)NC(=O)[C@H](CCC(N)=O)NC(=O)[C@H](CCCNC(=N)N)NC(=O)CNC(=O)[C@H](CC(C)C)NC(=O)[C@H](Cc1c[nH]c2ccccc12)NC(=O)[C@H](CO)NC(=O)[C@@H](NC(=O)[C@@H](NC(=O)[C@H](CCCNC(=N)N)NC(=O)[C@H](C)NC(=O)[C@H](C)NC(=O)CNC(=O)[C@H](CCC(N)=O)NC(=O)[C@H](CCCNC(=N)N)NC(=O)[C@H](C)NC(=O)[C@H](CC(N)=O)NC(=O)[C@H](CCC(=O)O)NC(=O)CCCC[C@@H]1SC[C@@H]2NC(=O)N[C@@H]21)C(C)C)[C@@H](C)O)C(=O)N[C@@H](C)C(=O)NCC(=O)N[C@@H](CCCCN)C(=O)N[C@@H](CCCNC(=N)N)C(=O)N[C@@H](CC(C)C)C(=O)N[C@@H](CCC(=O)O)C(=O)NCC(=O)N[C@@H](CCCNC(=N)N)C(=O)N[C@@H](CO)C(=O)N[C@@H](CCCCN)C(=O)N[C@H](C(=O)N[C@@H](Cc1c[nH]c2ccccc12)C(=O)N[C@@H](Cc1ccccc1)C(N)=O)[C@@H](C)O [191-223] | 0.15 | 41 (≈ 10.2 µM)
2 | CC[C@H](C)[C@H](NC(=O)[C@H](CCCNC(=N)N)NC(=O)[C@H](CC(C)C)NC(=O)[C@H](CCC(N)=O)NC(=O)[C@H](CCCNC(=N)N)NC(=O)CNC(=O)[C@H](CC(C)C)NC(=O)[C@H](Cc1c[nH]c2ccccc12)NC(=O)[C@H](CO)NC(=O)[C@@H](NC(=O)[C@@H](NC(=O)[C@H](CCCNC(=N)N)NC(=O)[C@H](C)NC(=O)[C@H](C)NC(=O)CNC(=O)[C@H](CCC(N)=O)NC(=O)[C@H](CCCNC(=N)N)NC(=O)[C@H](C)NC(=O)[C@H](CC(N)=O)NC(=O)[C@H](CCC(=O)O)NC(=O)CCCC[C@@H]1SC[C@@H]2NC(=O)N[C@@H]21)C(C)C)[C@@H](C)O)C(=O)N[C@@H](C)C(=O)NCC(=O)N[C@@H](CCCCN)C(=O)N[C@@H](CCCNC(=N)N)C(=O)N[C@@H](CC(C)C)C(=O)N[C@@H](CCC(=O)O)C(N)=O [191-216] | >0.33 | 95 (≈ 30 µM)
3 | CC[C@H](C)[C@H](NC(=O)[C@H](CCCNC(=N)N)NC(=O)[C@H](CC(C)C)NC(=O)[C@H](CCC(N)=O)NC(=O)[C@H](CCCNC(=N)N)NC(=O)CNC(=O)[C@H](CC(C)C)NC(=O)[C@H](Cc1c[nH]c2ccccc12)NC(=O)[C@H](CO)NC(=O)[C@@H](NC(=O)[C@@H](NC(=O)[C@H](CCCNC(=N)N)NC(=O)[C@H](C)NC(=O)[C@H](C)NC(=O)CNC(=O)[C@H](CCC(N)=O)NC(=O)[C@H](CCCNC(=N)N)NC(=O)[C@H](C)NC(=O)[C@H](CC(N)=O)NC(=O)[C@H](CCC(=O)O)NC(=O)[C@@H](NC(=O)[C@@H](NC(=O)[C@H](CC(N)=O)NC(=O)[C@@H](NC(=O)[C@H](CCSC)NC(=O)CNC(=O)[C@H](CC(=O)O)NC(=O)[C@H](CC(C)C)NC(=O)[C@H](CC(C)C)NC(=O)[C@H](Cc1ccc(O)cc1)NC(=O)CCCC[C@@H]1SC[C@@H]2NC(=O)N[C@@H]21)[C@@H](C)O)[C@@H](C)O)[C@@H](C)CC)C(C)C)[C@@H](C)O)C(=O)N[C@@H](C)C(=O)NCC(=O)N[C@@H](CCCCN)C(=O)N[C@@H](CCCNC(=N)N)C(=O)N[C@@H](CC(C)C)C(=O)N[C@@H](CCC(=O)O)C(=O)NCC(=O)N[C@@H](CCCNC(=N)N)C(=O)N[C@@H](CO)C(=O)N[C@@H](CCCCN)C(N)=O [181-220] | 0.09 | 51 (≈ 10.8 µM)
4 | CC[C@H](C)[C@H](NC(=O)[C@H](CCCNC(=N)N)NC(=O)[C@H](CC(C)C)NC(=O)[C@H](CCC(N)=O)NC(=O)[C@H](CCCNC(=N)N)NC(=O)CNC(=O)[C@H](CC(C)C)NC(=O)[C@H](Cc1c[nH]c2ccccc12)NC(=O)[C@H](CO)NC(=O)[C@@H](NC(=O)[C@@H](NC(=O)[C@H](CCCNC(=N)N)NC(=O)[C@H](C)NC(=O)[C@H](C)NC(=O)CNC(=O)[C@H](CCC(N)=O)NC(=O)[C@H](CCCNC(=N)N)NC(=O)[C@H](C)NC(=O)[C@H](CC(N)=O)NC(=O)[C@H](CCC(=O)O)NC(=O)CCCC[C@@H]1SC[C@@H]2NC(=O)N[C@@H]21)C(C)C)[C@@H](C)O)C(=O)N[C@@H](C)C(N)=O [191-211] | >0.33 | 395 (≈ 153 µM)
5 | CC[C@H](C)[C@H](NC(=O)[C@H](CCCNC(=N)N)NC(=O)[C@H](CC(C)C)NC(=O)[C@H](CCC(N)=O)NC(=O)[C@H](CCCNC(=N)N)NC(=O)CNC(=O)[C@H](CC(C)C)NC(=O)[C@H](Cc1c[nH]c2ccccc12)NC(=O)[C@H](CO)NC(=O)[C@@H](NC(=O)[C@@H](NC(=O)[C@H](CCCNC(=N)N)NC(=O)CCCC[C@@H]1SC[C@@H]2NC(=O)N[C@@H]21)C(C)C)[C@@H](C)O)C(=O)N[C@@H](C)C(=O)NCC(=O)N[C@@H](CCCCN)C(=O)N[C@@H](CCCNC(=N)N)C(=O)N[C@@H](CC(C)C)C(=O)N[C@@H](CCC(=O)O)C(=O)NCC(=O)N[C@@H](CCCNC(=N)N)C(=O)N[C@@H](CO)C(=O)N[C@@H](CCCCN)C(N)=O [199-220] | 0.18 | 23 (≈ 8.23 µM)
6 | CC[C@H](C)[C@H](NC(=O)[C@H](CCCNC(=N)N)NC(=O)[C@H](CC(C)C)NC(=O)[C@H](CCC(N)=O)NC(=O)[C@H](CCCNC(=N)N)NC(=O)CNC(=O)[C@H](CC(C)C)NC(=O)[C@H](Cc1c[nH]c2ccccc12)NC(=O)[C@H](CO)NC(=O)[C@@H](NC(=O)[C@@H](NC(=O)[C@H](CCCNC(=N)N)NC(=O)[C@H](C)NC(=O)[C@H](C)NC(=O)CNC(=O)[C@H](CCC(N)=O)NC(=O)[C@H](CCCNC(=N)N)NC(=O)[C@H](C)NC(=O)[C@H](CC(N)=O)NC(=O)[C@H](CCC(=O)O)NC(=O)[C@@H](NC(=O)[C@@H](NC(=O)[C@H](CC(N)=O)NC(=O)[C@@H](NC(=O)[C@H](CCSC)NC(=O)CNC(=O)[C@H](CC(=O)O)NC(=O)CCCC[C@@H]1SC[C@@H]2NC(=O)N[C@@H]21)[C@@H](C)O)[C@@H](C)O)[C@@H](C)CC)C(C)C)[C@@H](C)O)C(=O)N[C@@H](C)C(=O)NCC(=O)N[C@@H](CCCCN)C(=O)N[C@@H](CCCNC(=N)N)C(=O)N[C@@H](CC(C)C)C(=O)N[C@@H](CCC(=O)O)C(=O)NCC(=O)N[C@@H](CCCNC(=N)N)C(=O)N[C@@H](CO)C(=O)N[C@@H](CCCCN)C(=O)N[C@H](C(=O)N[C@@H](Cc1c[nH]c2ccccc12)C(=O)N[C@@H](Cc1ccccc1)C(N)=O)[C@@H](C)O [184-223] | 0.15 | 46 (≈ 9.67 µM)
7 | CC[C@H](C)[C@H](NC(=O)[C@H](CCCNC(=N)N)NC(=O)[C@H](CC(C)C)NC(=O)[C@H](CCC(N)=O)NC(=O)[C@H](CCCNC(=N)N)NC(=O)CNC(=O)[C@H](CC(C)C)NC(=O)[C@H](Cc1c[nH]c2ccccc12)NC(=O)[C@H](CO)NC(=O)[C@@H](NC(=O)[C@@H](NC(=O)[C@H](CCCNC(=N)N)NC(=O)[C@H](C)NC(=O)[C@H](C)NC(=O)CNC(=O)[C@H](CCC(N)=O)NC(=O)[C@H](CCCNC(=N)N)NC(=O)[C@H](C)NC(=O)[C@H](CC(N)=O)NC(=O)[C@H](CCC(=O)O)NC(=O)[C@@H](NC(=O)[C@@H](NC(=O)[C@H](CC(N)=O)NC(=O)[C@@H](NC(=O)[C@H](CCSC)NC(=O)CNC(=O)[C@H](CC(=O)O)NC(=O)[C@H](CC(C)C)NC(=O)[C@H](CC(C)C)NC(=O)[C@H](Cc1ccc(O)cc1)NC(=O)[C@H](CC(C)C)NC(=O)[C@H](C)NC(=O)[C@@H](NC(=O)[C@H](CC(=O)O)NC(=O)[C@H](CCC(N)=O)NC(=O)[C@H](CC(C)C)NC(=O)[C@H](CC(C)C)NC(=O)[C@H](CO)NC(=O)CNC(=O)CCCC[C@@H]1SC[C@@H]2NC(=O)N[C@@H]21)[C@@H](C)O)[C@@H](C)O)[C@@H](C)O)[C@@H](C)CC)C(C)C)[C@@H](C)O)C(=O)N[C@@H](C)C(N)=O [172-211] | >0.33 | >500
